We go through 4 compounds from patent US4126616A, “N-propylnorapomorphine diesters” (Hinshaw; William B., priority 1976, dated 1978).

The test system of the assay is caudate lesioned mouse. Description: caudate lesioned mouse test (anti-parkinson activity). It counts as in vivo. The settings on record: for responders at 1.6 µmol/kg / responders at 3.2 µmol/kg / responders at 6 µmol/kg / responders at 26 µmol/kg / responders at 208 µmol/kg / responders at 416 µmol/kg / responders at 13 µmol/kg / responders at 132 µmol/kg: Mus musculus; for responders at 1.6 µmol/kg: dose 0.0016 m. mole/kg; for responders at 3.2 µmol/kg: dose 0.0032 m. mole/kg; for responders at 6 µmol/kg: dose 0.006 m. mole/kg; for responders at 26 µmol/kg: dose 0.026 m. mole/kg; for responders at 208 µmol/kg: dose 0.208 m. mole/kg; for responders at 416 µmol/kg: dose 0.416 m. mole/kg; for ED50: caudate lesioned mouse, read-out: ED50; for responders at 13 µmol/kg: dose 0.013 m. mole/kg; for responders at 132 µmol/kg: dose 0.132 m. mole/kg. How it is done: An index of anti-parkinson activity was determined using the caudate lesioned mouse test described by Lotti, Life Sci., 10, 781-789 (1971). The mice having unilateral lesions of the caudate nucleus prepared according to the method of Lotti supra were observed immediately after the surgical procedure for strong postural asymmetries directed to the same side as the lesion. When this asymmetry was not observed, the mice were discarded. Operated mice were allowed at least 14 days to recover prior to drug testing. The lesioned mice were tested with apomorphine using 1.7 mg./kg. of base administered intraperitoneally in a 1% suspension in gum tragacanth. […] Only those mice which twisted or circled toward the lesioned side in all three test periods after the apomorphine injection were retained for further drug testing. The test drugs were all administered in 1% gum tragacanth suspension in a volume of 0.1 ml./10 g. of body weight. Doses were expressed in mg./kg. of free base.
Results of tests in the caudate lesioned mouse test described above which were obtained on the compounds of the invention are given in the table below identified, in each case, by the example numbers above where their preparations are described. Corresponding data for reference apomorphine diesters described in German patent application No. 2,154,162 are given in a side-by-side relationship for a number of the species. The reference compounds, designated Ref. 1, Ref. 1B, Ref. 1C, Ref. 1D, Ref. 1E, Ref. 1F, Ref. 2 and Ref. 2A correspond, respectively, to the compounds of the invention identified by Examples 1, 1B, 1C, 1D, 1E, 1F, 2 and 2A and differ from the latter only in having a methyl group on the apomorphine nitrogen from instead of an n-propyl group as present in the instant compounds.

The mark [1] stands for this setting: 0.5 h, 1/2 h post-drug, read-out: No. Mice Affected/No. Mice Tested, 1/2 h.
Where [2] appears, read: 0.5 h, 1/2 h post-drug, read-out: No. Mice Affected/No. Mice Tested, 1/2 h (converted).
Where [3] appears, read: 1 h post-drug, read-out: No. Mice Affected/No. Mice Tested, 1 h.
Setting [4] is: 6 h post-drug, read-out: No. Mice Affected/No. Mice Tested, 6 h.
Where [5] appears, read: 24 h post-drug, read-out: No. Mice Affected/No. Mice Tested, 24 h.
[6] abbreviates: 1 h post-drug, read-out: No. Mice Affected/No. Mice Tested, 1 h (converted).
[7] abbreviates: 2 h post-drug, read-out: No. Mice Affected/No. Mice Tested, 2 h (converted).
[8] abbreviates: 4 h post-drug, read-out: No. Mice Affected/No. Mice Tested, 4 h (converted).
The mark [9] stands for this setting: total, read-out: No. Mice Affected/No. Mice Tested, Total (converted).
The mark [10] stands for this setting: 6 h post-drug, read-out: No. Mice Affected/No. Mice Tested, 6 h (converted).
Setting [11] is: 24 h post-drug, read-out: No. Mice Affected/No. Mice Tested, 24 h (converted).

Structures can show the parent of a compound that is named as a salt. Where two headings read alike, the source gives them in different places.

With `CCCN1CCc2cccc3c2C1Cc1ccc(OC(=O)c2cc(OC)cc(OC)c2)c(OC(=O)c2cc(OC)cc(OC)c2)c1-3` (stereo not shown) [Ex. 1K, N-Propylnorapomorphine bis-3,5-dimethoxybenzoate hydrochloride], the responders at 1.6 µmol/kg is 0% under setting [1]; 0% under setting [3]; 0% (2 h post-drug, read-out: No. Mice Affected/No. Mice Tested, 2 h); 0% (4 h post-drug, read-out: No. Mice Affected/No. Mice Tested, 4 h); 0% under setting [4]; 0% under setting [5]. Besides, where the note is “total, read-out: No. Mice Affected/No. Mice Tested, Total”, the responders at 1.6 µmol/kg worked out at 0%. Also, the responders at 3.2 µmol/kg was 0% under setting [1]; 25% under setting [6]; 50% under setting [7]; 50% under setting [8]; 0% under setting [4]; 0% under setting [5]. In addition, the responders at 3.2 µmol/kg under setting [9] was 50%. The responders at 6 µmol/kg is, setting by setting: under setting [1], 0%; under setting [3], 0%; under setting [7], 75%; under setting [8], 75%; under setting [10], 50%; under setting [5], 0%. Moreover, the responders at 6 µmol/kg under setting [9] is 75%. Further, the responders at 26 µmol/kg runs as follows: under setting [2], 50%; under setting [6], 100%; under setting [7], 50%; under setting [8], 50%; under setting [10], 50%; under setting [5], 0%. Further, the responders at 26 µmol/kg under setting [9] was 100%.

For the compound `CCCCCCCCCCCCCCCC(=O)Oc1ccc2c(c1OC(=O)CCCCCCCCCCCCCCC)-c1cccc3c1C(C2)N(C)CC3` (stereo not shown) [Ref. 1D, reference compound], the responders at 208 µmol/kg runs as follows: under setting [2], 0%; under setting [3], 0%; under setting [8], 0%; under setting [10], 0%; under setting [11], 0%; under setting [9], 0%. Further, the responders at 416 µmol/kg was 0% under setting [2]; 0% under setting [6]; 0% under setting [8]; 0% under setting [10]; 0% under setting [5]; 0% under setting [9].

For orientation: ED50 means the dose at which the effect has come halfway, by size or by number of responders. Consider `CCCN1CCc2cccc3c2C1Cc1ccc(OC(=O)c2ccccc2C)c(OC(=O)c2ccccc2C)c1-3` (stereo not shown) [Ex. 1G, N-Propylnorapomorphine bis-2-methylbenzoate], for which the median effective dose (ED50) came out at 26 µmol/kg. Also, the responders at 26 µmol/kg under setting [2] is 25%. Also, under setting [6], the responders at 26 µmol/kg was 50%. Under setting [7], the responders at 26 µmol/kg was 50%. In addition, the responders at 26 µmol/kg under setting [8] was 50%. Besides, the responders at 26 µmol/kg under setting [10] was 50%. In addition, the responders at 26 µmol/kg under setting [5] is 0%. In addition, under setting [9], the responders at 26 µmol/kg is 50%.

As for `CCCN1CCc2cccc3c2C1Cc1ccc(OC(=O)C2CC2)c(OC(=O)C2CC2)c1-3` (stereo not shown) [Ex. 1M, N-Propylnorapomorphine bis-cyclopropanecarboxylate], the ED50 is 13 µmol/kg. Also, under setting [2], the responders at 13 µmol/kg is 50%, the responders at 26 µmol/kg was 100% and the responders at 132 µmol/kg was 100%. In addition, under setting [6], the responders at 13 µmol/kg is 50%, the responders at 26 µmol/kg was 75% and the responders at 132 µmol/kg is 100%. Moreover, under setting [7], the responders at 13 µmol/kg is 50%, the responders at 26 µmol/kg is 75% and the responders at 132 µmol/kg is 100%. Under setting [8], the responders at 13 µmol/kg is 25%, the responders at 26 µmol/kg was 75% and the responders at 132 µmol/kg is 100%. Under setting [4], the responders at 13 µmol/kg was determined as 0%. Besides, under setting [5], the responders at 13 µmol/kg is 0% and the responders at 26 µmol/kg was found to be 0%. Under setting [9], the responders at 13 µmol/kg is 50%, the responders at 26 µmol/kg is 100% and the responders at 132 µmol/kg is 100%. For the same compound, under setting [10], the responders at 26 µmol/kg is 75% and the responders at 132 µmol/kg is 100%. The responders at 132 µmol/kg under setting [11] is 100%.
